Patent US12545718B2 (priority 2019, dated 2026)

Tested on: B/Malaysia/2506/04 virus
Design: species or system BALB/c mice
Details: mouse, in vivo

## CCOC(=O)C1=C[C@@H](OC(CC)CC)[C@H](NC(C)=O)[C@@H](N)C1 [oseltamivir, Oseltamivir phosphate]
  weight loss: does not protect from weight loss
